Data set [1] is described as follows: Gelation tests of L-DOPA-containing lipodipeptides in organic solvent/water. The class given is physicochemical. To be noted: for Gel formation: organic solvents (MeOH, ethanol, toluene, THF, DMSO, DMF) with water; for Gel formation / Range of gelation concentrations: result in words. The procedure:
(§1) 1) Six samples of 40 mg FDD-16 was added into six 2 ml centrifuge tubes, followed by addition of 1 ml of respective organic solvents. Mother solutions were prepared using MeOH, ethanol, toluene, THF, DMSO, and DMF, respectively.
(§2) 2) Aliquots of 50 μl of the above mother solutions were added, respectively, to nine 2 ml centrifuge tubes, followed by addition of organic solvents (MeOH, ethanol, toluene, THF, DMSO, DMF, respectively). The volume ratios of the organic solvent to distilled water were 1:9, 2:8, 3:7, 4:6, 5:5, 6:4, 7:3, 8:2 and 9:1, respectively. Tests of each solvent ratio were repeated 3 times. Gel formation rates and the corresponding sample concentrations were marked down.
The experiments were performed like those of FDD-16.

For data set [2] the following is noted: in vivo; cited from earlier work.
A short description of data set [3]: Appearance and stability of gels by turning the tubes upside down. Conditions: tubes turned upside down, standing for long time. The data set is classed as physicochemical. From the text: The appearance and stability of gels formed from FDD-16 was studied by turning the tubes upside down and. […] This shed lights on future druggability study of FDD-16 using MeOH, ethanol, THF, DMSO and DMF as solvents. See FIG. 1 for gel formation experiments.

Data set [4] can be described thus: Gelation tests of conjugates of fatty acid and L-DOPA in organic solvent/water. To be noted: Table 3. The class given is physicochemical. The procedure: as §1, §2
Tests were performed according to the tests done for FDD-16.

For data set [5] the following is noted: rat liver homogenate; cited from earlier work.

“Also recorded” adds a separate entry of the source. Where a SMILES comes first, the peptide text is derived from it. [ ]: non-standard residue; d: D form. The star is where a group is joined. Dopa = N[C@@H](Cc1ccc(O)c(O)c1)C(=O)O; Stearoyl = CCCCCCCCCCCCCCCCCC(=O)*; Palmitoyl = CCCCCCCCCCCCCCCC(=O)*; Myristoyl = CCCCCCCCCCCCCC(=O)*

In the case of `CCCCCCCCCCCCCCCCCC(=O)N[C@@H](Cc1ccc(O)c(O)c1)C(=O)N[C@@H](CC(=O)O)C(=O)O` [FDD-18] (Stearoyl-[Dopa]-Asp-OH), the Gelation concentration in data set [1] (DMF/water, Table 2) is on record as 14~26 g/mL; in data set [1] (DMSO/water, Table 2) it was 16~30 g/mL; in data set [1] (Ethanol/water, Table 1) it was 12~26 g/mL; in data set [1] (MeOH/water, Table 1) it was 10~16 g/mL. Moreover, in data set [1], the Gel formation result is “could form stable gels; also recorded: formed gels in MeOH, ethanol, DMSO and DMF; also recorded: higher possibilities to form gels; also recorded: can form stable gels”. Besides, the “Range of gelation concentrations” value in data set [1] is “narrower than those of FDD-16 and FDD-14”.

Consider `N[C@@H](Cc1ccc(O)c(O)c1)C(=O)O` [L-DOPA], for which, in data set [2], the bioavailability is 1-3% and the “time of effective blood drug concentration” value is recorded as 50 min.

Consider `CCCCCCCCCCCCCC(=O)N[C@@H](Cc1ccc(O)c(O)c1)C(=O)N[C@@H](CC(=O)O)C(=O)O` [FDD-14] (Myristoyl-[Dopa]-Asp-OH), for which the Gelation concentration is listed as 6~20 g/mL in data set [1] (DMF/water, Table 2); 8~22 g/mL in data set [1] (DMSO/water, Table 2); 8~20 g/mL in data set [1] (Ethanol/water, Table 1); 8~22 g/mL in data set [1] (MeOH/water, Table 1); 6~8 g/mL in data set [1] (THF/water, Table 2). Moreover, the Gel formation result in data set [1] was “could form stable gels; also recorded: formed gels in MeOH, ethanol, THF, DMSO and DMF; also recorded: higher possibilities to form gels; also recorded: can form stable gels”. The “Range of gelation concentrations” value in data set [1] is “wide range of gelation concentrations”.

Regarding `CCCCCCCCCCCCCCCC(=O)N[C@@H](Cc1ccc(O)c(O)c1)C(=O)N[C@@H](CC(=O)O)C(=O)O` [FDD-16] (Palmitoyl-[Dopa]-Asp-OH), the “Appearance and stability of gel” value in data set [3] was “in good condition and remained at the bottom while standing for long time”. The Gelation concentration was 6~22 g/mL in data set [1] (DMF/water, Table 2); 6~28 g/mL in data set [1] (DMSO/water, Table 2); 6~24 g/mL in data set [1] (Ethanol/water, Table 1); 6~26 g/mL in data set [1] (MeOH/water, Table 1); 8~12 g/mL in data set [1] (THF/water, Table 2). Moreover, the Gel formation result in data set [1] is “could form stable gels; also recorded: formed gels in MeOH, ethanol, THF, DMSO and DMF; also recorded: can form stable gels”. The “Range of gelation concentrations” value in data set [1] is reported as “wide range of gelation concentrations”.

For `CCCCCCCCCCCCCCCCCC(=O)N[C@@H](Cc1ccc(O)c(O)c1)C(=O)O` [FD-18], the Gelation concentration in data set [4] (Ethanol/water) is listed as 10~14 g/mL; in data set [4] (MeOH/water), 10~15 g/mL.

For the molecule `N[C@@H](Cc1ccc(O)c(O)c1)C(=O)N[C@@H](CC(=O)O)C(=O)O` [H-DOPA-Asp-OH] (H-[Dopa]-Asp-OH), the half-life result in data set [5] is “about 174 min”.

With `CSCC[C@H](NC(=O)[C@@H](N)Cc1ccc(O)c(O)c1)C(=O)O` [H-DOPA-Met-OH] (H-[Dopa]-Met-OH), the half-life in data set [5] is on record as 16 min.

For orientation: half-life means the time needed for the level to fall by half in the phase considered.

Source of the values: patent publication US20230087950A1, “METHOD FOR SYNTHESIZING DOPA OLIGOPEPTIDE INTERMEDIATE AND USE, COMPOSITION AND PREPARATION THEREOF” (HAINAN UNIVERSITY, priority 2019, published 2023).
